ChEMBL document CHEMBL3507680, “University of Dundee, Gates Library screen for HepG2 cell viability”

Assay: Human HepG2 cell viability assay in 384 well format
Format: toxicity, cell-based
Design: dose 125 nL, time 70.5 hour; concentration not given beside the values
Conditions: HepG2 cells, read-out: Inhibition

Compound | cytotoxicity at 70.5 h [%]
O=C(c1cscn1)N1CCC[C@]2(C[C@H](OCC3CC3)CO2)C1 | -5.48
O=C(NCc1cn2c(n1)CN(Cc1cccnc1)CC2)C1CCC1 | 7.24
O=C(CCn1cncn1)N1CC[C@@H](c2ccc3ccccc3c2)[C@H](O)C1 | -10.5
CC[C@@H]1N(Cc2ccc(OC)cc2)CCC[C@]12CCC(=O)N2CCOC | 16.8
CCn1cc(CNC2CCN(c3cccc(Cl)c3)C2)cn1 (configuration not stated) | -3.2
CCc1nc(CN2CCCN(C(=O)c3occc3C)CC2)cs1 | -7.91
CNS(=O)(=O)CC(=O)NCc1cc2c(s1)CCCCC2 | -1.17
Cc1cc(C)cc(C(C(=O)O)N(C)CCCN2CCOCC2)c1 (configuration not stated) | 8.9
CC(Nc1cnn(C)c(=O)c1Cl)c1ccc(F)c(F)c1 (configuration not stated) | 39.8
Cc1cc(NC(=O)c2ccc(N3CCOCC3)cc2)[nH]n1 | -1.56
Cc1ccc(NC2CCN(C(=O)CN(C)C3CC3)CC2)nn1 | -1.46
Cc1cc(F)c2c(c1)CCCN2C(=O)c1cncc(Br)c1 | 0.703
CCc1cc(=O)n(CC(=O)N2CCCC2)c(-c2cccc(F)c2)n1 | 4.18
O=C(CCNCc1cc(O)c2cc(F)ccc2n1)N1CCCC1 | -8.32
O=S(=O)(c1c(F)cccc1F)N1CCCC1c1nnc2n1CCCCC2 (configuration not stated) | -12.1
COCCOC1CCN(C(=O)NCc2coc3ccccc23)CC1 | -6.59
COc1c(CNCc2ccccc2Cn2cncn2)c(C)nn1C | -1.28
NC(=O)C1CCN(C(=O)c2ccc(OCc3cscn3)cc2)CC1 | 55.1
Cc1nc(C)n(CC2CCCCN2CC(=O)NC2CCOCC2)n1 (configuration not stated) | -5.93

Compound | cytotoxicity at 70.5 h [%]
Cn1ncc2ccc(C3CCCN(Cc4cccs4)C3)nc21 (configuration not stated) | -0.364
c1ccc2ncc(CC3CCNCC3)cc2c1 | 13.4
O=C(O)C1(Oc2ccc(Cl)cc2)CCN(C2CCOCC2)CC1 | -17.1
O=C(c1ncncc1Cl)N1CCC2(CCCC2)CC1 | -5.92
COc1cc(NC(=O)c2ccccc2F)c(C(=O)N(C)C)cc1OC | -10.5
COC(=O)c1ccc(OCCn2cnc(C#N)n2)cc1 | -24.3
COc1ccc(OC)c(CCC(=O)Nc2cc(C)n[nH]2)c1 | -13.4
CCN(C)c1ncnc2c1CCN(C(=O)[C@H]1CCCO1)CC2 | -9.23
CN(C)C(Cn1ccnc1-c1ccccc1C(=O)O)c1ccccc1Cl (configuration not stated) | 10.5
CCCNc1ccc(C(=O)NCCc2cccc(Cl)c2)cn1 | -4.77
Cc1nnc(CN(C)C2CCN(Cc3nc4ccccc4n3C)C2)o1 (configuration not stated) | -1.55
O=C(COCC(=O)N(c1ccccc1)c1ccccc1)N1CCCC1 | -3.7
Cc1cccnc1CN(C)C(C(=O)O)c1ccc(-c2ccn[nH]2)cc1 (configuration not stated) | -3.62
COc1ccc2c(c1)OCC(C(=O)NCc1ncc3c(n1)CCC3)C2 (configuration not stated) | -8.14
Cn1cc(CNC2CCc3c(ccc(=O)n3Cc3cccnc3)C2)cn1 (configuration not stated) | -14.4
Cc1cc2n(n1)CC(CNCCc1cnn(C)c1)CN2 (configuration not stated) | 34.9
N#CCCCn1nnnc1Cc1ccc(Br)cc1 | -13.9
Cn1c(C(F)(F)F)nn(CCNC(=O)c2ccccn2)c1=O | -7.74
Cc1c(C(=O)N2CCC(C(O)c3ccc(Cl)cc3)CC2)cnn1C (configuration not stated) | -3.74

Compound | cytotoxicity at 70.5 h [%]
COc1cc(C)nc(N2CCN(C(=O)CCc3ccncc3)CC2)n1 | 28
Cn1ccnc1C(=O)N1CCCC1c1ccc(C(=O)N2CCOCC2)s1 (configuration not stated) | -2.53
CC(NC(=O)CN1CCN(c2ccncc2Cl)CC1)c1ccco1 (configuration not stated) | -7.35
COc1cccc(-c2noc(C3CCN(Cc4ccccc4F)C3)n2)c1 (configuration not stated) | 38.2
Cn1cc(-c2cnc(N3CCOCC3)nc2)cc1C(=O)N1CCOCC1 | -22
COCCN(C(=O)c1ccc(OC)cc1)c1ccc(C#N)cc1 | 10.5
O=C1NC2(CCN(CC(=O)N3CCOCC3)CC2)Nc2ccccc21 | -2.3
COc1cc2c(nn1)CCN(Cc1noc(CC(C)C)n1)C2 | -4.19
Cc1nc(C2CCCC2)sc1C(N)=O | 12
CC(=O)N1CCOC2(CCCN(Cc3ccc(N(C)C)cc3)C2)C1 (configuration not stated) | -2.02
CSc1nsc(NC(=O)c2cc(C3CC3)nn2C)n1 | -6.09
CCOC(=O)C1CN(S(=O)(=O)CC)Cc2ncn(CC)c21 (configuration not stated) | 0.473
Cc1cc(N(Cc2cccnc2)C2CC2)n2nc(C(F)(F)F)nc2n1 | 9.82
CCCN1CCCCC1C(=O)Nc1ccc(-c2nnc[nH]2)cc1 (configuration not stated) | -4.51
CN(C)CC(C)(C)Cn1cnc(-c2ccccc2)c1-c1ccncc1 | -9.09
Cc1cc(CC(C)NC(=O)c2cccc(CC3CCNCC3)c2)[nH]n1 (configuration not stated) | -2.93
CC/N=c1\nc(NCC)nc2n1C(O)(Nc1ccc(C)cc1C)CS2 (configuration not stated) | 4.88
Cc1cnn(CC(C)NCc2ccc(OCc3ccncc3)cc2)c1 (configuration not stated) | 30.2
Cc1cnc(CNC(=O)NCc2cccnc2N(C)C)s1 | -17.2
